Results reported in ChEMBL document CHEMBL1212738, “Phenotypic and genotypic characterization of Enterobacteriaceae with decreased susceptibility to carbapenems: results from large hospital-based surveillance studies in China” (2010).
Values after ≈ are worked out from the molar mass of the structure shown.

Tests used:
Klebsiella pneumoniae [1] = assay: Antimicrobial activity against Klebsiella pneumoniae ZJ68T expressing CTX-M-15 by CLSI method; assay type: functional
Klebsiella pneumoniae [2] = assay: Antimicrobial activity against carbapenem-resistant Klebsiella pneumoniae ZJ69 deficient in SHV-28, ompK35/36 by CLSI method; assay type: functional
Klebsiella pneumoniae [3] = assay: Antimicrobial activity against carbapenem-resistant Klebsiella pneumoniae GZ83 deficient in SHV-11, CTX-M-14, ompK35/36 by CLSI method; assay type: functional
Klebsiella pneumoniae [4] = assay: Antimicrobial activity against carbapenem-resistant Klebsiella pneumoniae PU104 deficient in TEM-1, SHV-11, CTX-M-15, qnrS1, ompK35/36 by CLSI method; assay type: functional
Escherichia coli [5] = assay: Antimicrobial activity against carbapenem-resistant Escherichia coli PU60 deficient in TEM-1, CMY-2, ompC/F by CLSI method; assay type: functional
Escherichia coli [6] = assay: Antimicrobial activity against Escherichia coli PU60T expressing CMY-2 by CLSI method; assay type: functional
Escherichia coli [7] = assay: Antimicrobial activity against Escherichia coli PU101T expressing CMY-2 by CLSI method; assay type: functional
Enterobacter cloacae [8] = assay: Antimicrobial activity against carbapenem-resistant Enterobacter cloacae GX24 deficient in TEM-1, DHA-1, aac(6')-Ib, ompC by CLSI method; assay type: functional
Escherichia coli [9] = assay: Antimicrobial activity against carbapenem-resistant Escherichia coli PU43 deficient in TEM-1, CTX-M-14, aac(6')-Ib, ompC/F by CLSI method; assay type: functional
Escherichia coli [10] = assay: Antimicrobial activity against carbapenem-resistant Escherichia coli HX74 deficient in TEM-1, CTX-M-14, CTX-M-3, aac(6')-Ibcr, ompC/F by CLSI method; assay type: functional
Enterobacter cloacae [11] = assay: Antimicrobial activity against carbapenem-resistant Enterobacter cloacae GX56 deficient in ompC and expressing low levels of ompF DE by CLSI method; assay type: functional
Enterobacter cloacae [12] = assay: Antimicrobial activity against carbapenem-resistant Enterobacter cloacae NJ88 deficient in CTX-M-14, ompC/F by CLSI method; assay type: functional
Enterobacter cloacae [13] = assay: Antimicrobial activity against carbapenem-resistant Enterobacter cloacae NJ89 deficient in CTX-M-14, ompC/F by CLSI method; assay type: functional
Citrobacter freundii [14] = assay: Antimicrobial activity against Citrobacter freundii RJ78 expressing CMY-2, qnrA1, aac(6')-Ib-cr, ompC by CLSI method; assay type: functional
Klebsiella pneumoniae [15] = assay: Antimicrobial activity against Klebsiella pneumoniae ZJ18T expressing KPC-2, DHA-1 by CLSI method; assay type: functional
Klebsiella pneumoniae [16] = assay: Antimicrobial activity against carbapenem-resistant Klebsiella pneumoniae ZJ71 deficient in KPC-2, TEM-1, SHV-11, CTX-M-14, ompK35 by CLSI method; assay type: functional
Klebsiella pneumoniae [17] = assay: Antimicrobial activity against Klebsiella pneumoniae ZJ71T expressing KPC-2 by CLSI method; assay type: functional
Klebsiella pneumoniae [18] = assay: Antimicrobial activity against Klebsiella pneumoniae ZJ99T expressing KPC-2, CTX-M-3, qnrS1 by CLSI method; assay type: functional
Klebsiella pneumoniae [19] = assay: Antimicrobial activity against Klebsiella pneumoniae FZ47T expressing IMP-8, TEM-1, CTX-M-14, qnrB2, aac(6')-Ib by CLSI method; assay type: functional
Klebsiella pneumoniae [20] = assay: Antimicrobial activity against carbapenem-resistant Klebsiella pneumoniae FZ49 deficient in IMP-8, TEM-1, SHV-11, CTX-M-14, qnrB2, aac(6')-Ib, ompK35/36 by CLSI method; assay type: functional
Klebsiella pneumoniae [21] = assay: Antimicrobial activity against Klebsiella pneumoniae WH77 expressing IMP-4, TEM-1, SHV-14, CTX-M-3, qnrS1 by CLSI method; assay type: functional
Citrobacter freundii [22] = assay: Antimicrobial activity against Citrobacter freundii SZ62 expressing IMP-4, TEM-1, CMY-2, qnrS1, aac(6')-Ib-cr by CLSI method; assay type: functional
Enterobacter cloacae [23] = assay: Antimicrobial activity against carbapenem-resistant Enterobacter cloacae RJ94 deficient in IMP-4, TEM-1, CTX-M-3, ompC by CLSI method; assay type: functional
Enterobacter cloacae [24] = assay: Antimicrobial activity against carbapenem-resistant Enterobacter cloacae WH103 deficient in IMP-4, TEM-1, CTX-M-3, qnrS1, ompC by CLSI method; assay type: functional
Klebsiella pneumoniae [25] = assay: Antimicrobial activity against carbapenem-resistant Klebsiella pneumoniae PU3 deficient in DHA-1, aac(6')-Ib-cr, ompK35/36 by CLSI method; assay type: functional
Klebsiella pneumoniae [26] = assay: Antimicrobial activity against carbapenem-resistant Klebsiella pneumoniae PU8 deficient in SHV-11, DHA-1, aac(6')-Ib-cr, ompK35/36 by CLSI method; assay type: functional
Klebsiella pneumoniae [27] = assay: Antimicrobial activity against carbapenem-resistant Klebsiella pneumoniae GZ66 deficient in SHV-11, DHA-1, ompK35/36 by CLSI method; assay type: functional
Klebsiella pneumoniae [28] = assay: Antimicrobial activity against carbapenem-resistant Klebsiella pneumoniae SX67 deficient in SHV-2, CTX-M-14, DHA-1, qnrB6/S1, aac(6')-Ib-cr, ompK35/36 by CLSI method; assay type: functional
Klebsiella pneumoniae [29] = assay: Antimicrobial activity against carbapenem-resistant Klebsiella pneumoniae XJ81 deficient in TEM-1, SHV-12, DHA-1, aac(6')-Ib, ompK35/36 by CLSI method; assay type: functional
Escherichia coli [30] = assay: Antimicrobial activity against Escherichia coli C600 transconjugant XJ81T expressing TEM-1, SHV-12, aac(6')-Ib by CLSI method
Escherichia coli [31] = assay: Antimicrobial activity against Escherichia coli C600 transconjugant WH76T expressing IMP-4, TEM-1, CTX-M-3, qnrS1 by CLSI method

Row | Compound | MIC (Klebsiella pneumoniae [1]) [µg/mL] | MIC (Klebsiella pneumoniae [2]) [µg/mL] | MIC (Klebsiella pneumoniae [3]) [µg/mL] | MIC (Klebsiella pneumoniae [4]) [µg/mL] | MIC (Escherichia coli [5]) [µg/mL] | MIC (Escherichia coli [6]) [µg/mL] | MIC (Escherichia coli [7]) [µg/mL] | MIC (Enterobacter cloacae [8]) [µg/mL] | MIC (Escherichia coli [9]) [µg/mL] | MIC (Escherichia coli [10]) [µg/mL] | MIC (Enterobacter cloacae [11]) [µg/mL] | MIC (Enterobacter cloacae [12]) [µg/mL] | MIC (Enterobacter cloacae [13]) [µg/mL] | MIC (Citrobacter freundii [14]) [µg/mL] | MIC (Klebsiella pneumoniae [15]) [µg/mL] | MIC (Klebsiella pneumoniae [16]) [µg/mL] | MIC (Klebsiella pneumoniae [17]) [µg/mL] | MIC (Klebsiella pneumoniae [18]) [µg/mL] | MIC (Klebsiella pneumoniae [19]) [µg/mL] | MIC (Klebsiella pneumoniae [20]) [µg/mL] | also measured
1 | CN(C)c1cc(NC(=O)CNC(C)(C)C)c(O)c2c1C[C@H]1C[C@H]3[C@H](N(C)C)C(O)=C(C(N)=O)C(=O)[C@@]3(O)C(O)=C1C2=O [TIGECYCLINE] | 0.064 (≈ 0.109 µM) | 0.5 (≈ 0.854 µM) | 0.5 (≈ 0.854 µM) | 0.5 (≈ 0.854 µM) | 0.125 (≈ 0.213 µM) | 0.125 (≈ 0.213 µM) | 0.25 (≈ 0.427 µM) | 1 (≈ 1.71 µM) | 0.25 (≈ 0.427 µM) | 0.064 (≈ 0.109 µM) | 4 (≈ 6.83 µM) | 0.5 (≈ 0.854 µM) | 0.5 (≈ 0.854 µM) | 1 (≈ 1.71 µM) | 0.06 (≈ 0.102 µM) | 0.13 (≈ 0.222 µM) | 0.13 (≈ 0.222 µM) | 0.25 (≈ 0.427 µM) | 0.06 (≈ 0.102 µM) | 0.5 (≈ 0.854 µM) | MIC (Klebsiella pneumoniae [21]): 0.5 µg/mL (≈ 0.854 µM); MIC (Citrobacter freundii [22]): 1 µg/mL (≈ 1.71 µM); MIC (Enterobacter cloacae [23]): 1 µg/mL (≈ 1.71 µM); MIC (Enterobacter cloacae [24]): 1 µg/mL (≈ 1.71 µM); MIC (Klebsiella pneumoniae [25]): 0.25 µg/mL (≈ 0.427 µM); MIC (Klebsiella pneumoniae [26]): 1 µg/mL (≈ 1.71 µM); MIC (Klebsiella pneumoniae [27]): 0.5 µg/mL (≈ 0.854 µM); MIC (Klebsiella pneumoniae [28]): 0.5 µg/mL (≈ 0.854 µM); MIC (Klebsiella pneumoniae [29]): 0.5 µg/mL (≈ 0.854 µM); MIC (Escherichia coli [30]): 0.064 µg/mL (≈ 0.109 µM); MIC (Escherichia coli [31]): 0.06 µg/mL (≈ 0.102 µM)
2 | C[C@@H](O)[C@H]1C(=O)N2C(C(=O)O)=C(S[C@@H]3CN[C@H](C(=O)Nc4cccc(C(=O)O)c4)C3)[C@H](C)[C@H]12 | 0.064 (≈ 0.135 µM) | 32 (≈ 67.3 µM) | 128 (≈ 269 µM) | 64 (≈ 135 µM) | 64 (≈ 135 µM) | 0.064 (≈ 0.135 µM) | 0.25 (≈ 0.526 µM) | 16 (≈ 33.6 µM) | 32 (≈ 67.3 µM) | 16 (≈ 33.6 µM) | 32 (≈ 67.3 µM) | 128 (≈ 269 µM) | 128 (≈ 269 µM) | 8 (≈ 16.8 µM) | 2 (≈ 4.21 µM) | 16 (≈ 33.6 µM) | 4 (≈ 8.41 µM) | 8 (≈ 16.8 µM) | 4 (≈ 8.41 µM) | 4 (≈ 8.41 µM) | MIC (Klebsiella pneumoniae [21]): 4 µg/mL (≈ 8.41 µM); MIC (Citrobacter freundii [22]): 4 µg/mL (≈ 8.41 µM); MIC (Enterobacter cloacae [23]): 32 µg/mL (≈ 67.3 µM); MIC (Enterobacter cloacae [24]): 32 µg/mL (≈ 67.3 µM); MIC (Klebsiella pneumoniae [25]): 64 µg/mL (≈ 135 µM); MIC (Klebsiella pneumoniae [26]): 32 µg/mL (≈ 67.3 µM); MIC (Klebsiella pneumoniae [27]): 64 µg/mL (≈ 135 µM); MIC (Klebsiella pneumoniae [28]): 32 µg/mL (≈ 67.3 µM); MIC (Klebsiella pneumoniae [29]): 64 µg/mL (≈ 135 µM); MIC (Escherichia coli [30]): 0.008 µg/mL (≈ 0.0168 µM); MIC (Escherichia coli [31]): 2 µg/mL (≈ 4.21 µM)
3 | POLYMYXIN B | 0.5 | 1 | 1 | 0.5 | 0.5 | 0.25 | 0.25 | 2 | 0.5 | 0.5 | 0.5 | 0.5 | 0.5 | 2 | 0.25 | 1 | 0.5 | 0.25 | 0.25 | 1 | MIC (Klebsiella pneumoniae [21]): 1 µg/mL; MIC (Citrobacter freundii [22]): 0.5 µg/mL; MIC (Enterobacter cloacae [23]): 0.5 µg/mL; MIC (Enterobacter cloacae [24]): 0.5 µg/mL; MIC (Klebsiella pneumoniae [25]): 0.5 µg/mL; MIC (Klebsiella pneumoniae [26]): 1 µg/mL; MIC (Klebsiella pneumoniae [27]): 0.5 µg/mL; MIC (Klebsiella pneumoniae [28]): 1 µg/mL; MIC (Klebsiella pneumoniae [29]): 0.5 µg/mL
